Measured values: patent EP4660182A1, “NAV1.7- AND/OR NAV1.8-INHIBITING ARYL PYRIDINE COMPOUNDS, PROCESSES FOR THE PREPARATION THEREOF, COMPOSITIONS, USES, METHODS FOR TREATMENT USING SAME, AND KITS” (Eurofarma Laboratórios S.A., priority 2023, dated 2024)

Experiments:
[1] = target: T1, human sodium channels Nav 1.8 (Homo sapiens, UniProt Q9Y5Y9); assay: Automated whole-cell voltage-clamp (ScreenPatch 384P) sodium current block, Nav 1.8; assay type: cell-based; settings: CHO cells stably expressing human Nav 1.8; inactivation step -40 mV 8 s, test step 10 mV (TP1A); eight concentrations; exposure at least five minutes; room temperature; read-out: Nav1.8 IC50
T1 construct: expressed in transfected cells
T1 sequence (Q9Y5Y9 whole entry): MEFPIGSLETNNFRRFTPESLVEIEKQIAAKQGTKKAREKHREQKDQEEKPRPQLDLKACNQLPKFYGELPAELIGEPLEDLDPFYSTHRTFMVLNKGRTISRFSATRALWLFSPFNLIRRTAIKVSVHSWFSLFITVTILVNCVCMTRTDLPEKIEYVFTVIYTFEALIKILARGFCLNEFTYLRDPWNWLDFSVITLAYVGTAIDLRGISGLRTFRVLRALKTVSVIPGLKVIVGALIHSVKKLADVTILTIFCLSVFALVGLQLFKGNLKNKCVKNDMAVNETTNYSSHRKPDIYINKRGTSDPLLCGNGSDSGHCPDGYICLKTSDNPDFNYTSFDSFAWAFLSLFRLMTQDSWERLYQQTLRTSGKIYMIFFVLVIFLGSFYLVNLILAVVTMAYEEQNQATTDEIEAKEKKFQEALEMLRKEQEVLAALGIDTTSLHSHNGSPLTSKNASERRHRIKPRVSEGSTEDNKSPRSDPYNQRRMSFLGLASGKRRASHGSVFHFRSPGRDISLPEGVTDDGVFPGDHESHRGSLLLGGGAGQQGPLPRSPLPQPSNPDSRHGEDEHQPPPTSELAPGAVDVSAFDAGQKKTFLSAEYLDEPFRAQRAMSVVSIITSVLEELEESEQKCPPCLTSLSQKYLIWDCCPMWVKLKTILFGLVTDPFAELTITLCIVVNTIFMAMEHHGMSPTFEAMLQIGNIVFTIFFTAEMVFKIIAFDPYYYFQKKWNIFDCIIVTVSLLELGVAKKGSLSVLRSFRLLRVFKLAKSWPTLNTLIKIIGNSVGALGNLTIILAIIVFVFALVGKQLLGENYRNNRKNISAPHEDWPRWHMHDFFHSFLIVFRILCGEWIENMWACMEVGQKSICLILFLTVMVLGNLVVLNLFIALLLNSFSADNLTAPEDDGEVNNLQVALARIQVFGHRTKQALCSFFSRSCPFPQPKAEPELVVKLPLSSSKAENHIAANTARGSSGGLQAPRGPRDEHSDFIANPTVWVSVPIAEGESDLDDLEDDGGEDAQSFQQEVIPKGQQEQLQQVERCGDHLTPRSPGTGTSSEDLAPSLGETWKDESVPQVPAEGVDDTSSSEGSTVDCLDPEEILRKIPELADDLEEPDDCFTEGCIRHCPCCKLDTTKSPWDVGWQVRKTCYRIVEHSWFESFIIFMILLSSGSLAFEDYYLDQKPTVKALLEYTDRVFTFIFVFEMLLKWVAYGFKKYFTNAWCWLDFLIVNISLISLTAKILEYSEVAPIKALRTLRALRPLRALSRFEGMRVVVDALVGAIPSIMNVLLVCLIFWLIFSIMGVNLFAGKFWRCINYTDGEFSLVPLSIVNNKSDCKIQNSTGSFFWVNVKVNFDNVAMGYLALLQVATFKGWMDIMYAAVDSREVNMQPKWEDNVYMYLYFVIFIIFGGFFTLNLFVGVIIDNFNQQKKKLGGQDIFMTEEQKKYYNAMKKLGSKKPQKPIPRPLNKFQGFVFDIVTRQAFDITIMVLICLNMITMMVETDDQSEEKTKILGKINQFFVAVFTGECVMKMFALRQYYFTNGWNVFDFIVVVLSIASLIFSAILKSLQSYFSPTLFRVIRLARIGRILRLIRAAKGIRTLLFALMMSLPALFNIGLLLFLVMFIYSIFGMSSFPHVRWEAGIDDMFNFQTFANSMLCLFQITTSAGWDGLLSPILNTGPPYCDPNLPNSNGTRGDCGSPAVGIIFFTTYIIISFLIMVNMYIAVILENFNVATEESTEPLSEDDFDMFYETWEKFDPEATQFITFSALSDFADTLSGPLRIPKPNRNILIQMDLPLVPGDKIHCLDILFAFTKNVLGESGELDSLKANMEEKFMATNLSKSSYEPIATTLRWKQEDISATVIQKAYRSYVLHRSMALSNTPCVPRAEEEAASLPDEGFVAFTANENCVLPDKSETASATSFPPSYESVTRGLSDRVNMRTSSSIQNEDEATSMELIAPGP
How it was run: (§1)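 Stable CHO lines, whole-cell automated patch clamp at room temperature, ≥5 min exposure, eight concentrations. From -100 mV hold, 8 s at -40 mV, 20 ms at -100 mV, then test pulse to 10 mV (Nav 1.8) or 0 mV (Nav 1.7) at 0.05 Hz; peak-current % block fitted for IC50, averaged over repeats.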

[2] = target: T2, human sodium channels Nav 1.7 (Homo sapiens, UniProt Q15858); assay: Automated whole-cell voltage-clamp (ScreenPatch 384P) sodium current block, Nav 1.7; assay type: cell-based; settings: CHO cells stably expressing human Nav 1.7; inactivation step -40 mV 8 s, test step 0 mV (TP1A); eight concentrations; exposure at least five minutes; room temperature; read-out: Nav1.7 IC50
T2 construct: expressed in transfected cells
T2 sequence (Q15858 whole entry): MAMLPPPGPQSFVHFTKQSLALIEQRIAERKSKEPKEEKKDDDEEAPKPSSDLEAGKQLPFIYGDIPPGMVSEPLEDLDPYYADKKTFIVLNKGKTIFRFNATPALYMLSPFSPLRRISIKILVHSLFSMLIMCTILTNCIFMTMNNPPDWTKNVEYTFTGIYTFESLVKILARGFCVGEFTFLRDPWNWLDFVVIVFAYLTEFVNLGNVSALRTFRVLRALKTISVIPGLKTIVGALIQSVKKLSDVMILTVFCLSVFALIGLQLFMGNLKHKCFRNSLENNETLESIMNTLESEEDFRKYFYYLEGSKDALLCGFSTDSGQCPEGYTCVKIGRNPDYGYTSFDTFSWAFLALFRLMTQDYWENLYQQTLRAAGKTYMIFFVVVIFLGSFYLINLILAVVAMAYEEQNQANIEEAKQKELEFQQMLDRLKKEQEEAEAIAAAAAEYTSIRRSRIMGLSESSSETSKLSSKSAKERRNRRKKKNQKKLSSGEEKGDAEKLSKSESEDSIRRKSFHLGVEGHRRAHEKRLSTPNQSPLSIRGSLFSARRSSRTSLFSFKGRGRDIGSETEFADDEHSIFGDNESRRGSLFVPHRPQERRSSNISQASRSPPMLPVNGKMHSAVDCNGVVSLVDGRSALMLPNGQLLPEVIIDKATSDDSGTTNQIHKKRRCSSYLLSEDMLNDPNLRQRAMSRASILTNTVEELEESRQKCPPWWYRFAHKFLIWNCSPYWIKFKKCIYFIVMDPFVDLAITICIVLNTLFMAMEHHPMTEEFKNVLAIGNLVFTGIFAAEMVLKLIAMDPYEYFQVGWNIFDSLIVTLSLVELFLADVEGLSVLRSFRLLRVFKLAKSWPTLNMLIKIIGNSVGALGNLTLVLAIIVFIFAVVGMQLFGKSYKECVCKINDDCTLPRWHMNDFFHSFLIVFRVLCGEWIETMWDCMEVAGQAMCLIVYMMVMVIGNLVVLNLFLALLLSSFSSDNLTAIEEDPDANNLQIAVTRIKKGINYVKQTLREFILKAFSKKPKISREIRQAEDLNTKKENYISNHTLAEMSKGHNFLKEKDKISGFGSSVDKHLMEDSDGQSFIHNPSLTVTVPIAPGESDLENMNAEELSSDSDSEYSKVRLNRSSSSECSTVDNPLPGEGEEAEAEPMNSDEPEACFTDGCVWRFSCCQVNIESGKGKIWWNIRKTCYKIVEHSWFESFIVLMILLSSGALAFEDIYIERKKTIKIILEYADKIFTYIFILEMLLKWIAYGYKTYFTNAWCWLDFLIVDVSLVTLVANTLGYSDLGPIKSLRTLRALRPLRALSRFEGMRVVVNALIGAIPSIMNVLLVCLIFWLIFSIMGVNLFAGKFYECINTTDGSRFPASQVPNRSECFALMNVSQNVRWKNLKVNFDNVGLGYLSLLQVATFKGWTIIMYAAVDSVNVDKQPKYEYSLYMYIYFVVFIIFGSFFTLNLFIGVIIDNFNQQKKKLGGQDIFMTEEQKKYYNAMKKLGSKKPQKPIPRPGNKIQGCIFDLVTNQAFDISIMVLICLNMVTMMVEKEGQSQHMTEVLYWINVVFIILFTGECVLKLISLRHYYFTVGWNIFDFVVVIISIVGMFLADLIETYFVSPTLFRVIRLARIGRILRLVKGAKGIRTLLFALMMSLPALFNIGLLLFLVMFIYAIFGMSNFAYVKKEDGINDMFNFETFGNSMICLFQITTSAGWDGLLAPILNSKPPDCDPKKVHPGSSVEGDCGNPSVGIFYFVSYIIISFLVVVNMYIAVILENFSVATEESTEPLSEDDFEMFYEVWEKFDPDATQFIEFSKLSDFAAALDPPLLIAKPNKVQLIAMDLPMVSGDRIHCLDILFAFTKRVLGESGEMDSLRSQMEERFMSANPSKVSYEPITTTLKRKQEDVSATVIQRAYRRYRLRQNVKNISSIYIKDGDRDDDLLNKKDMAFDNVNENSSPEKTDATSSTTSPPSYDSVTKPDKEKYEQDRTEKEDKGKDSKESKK
How it was run: as §1

COc1cnc(F)c(/C=N/NC(=O)c2cncc(-c3cnc(OC(F)F)cc3C)n2)c1 [Compound 160, (E)-6-(6-(difluoromethoxy)-4-methylpyridine-3-yl)-N'-((2-fluoro-5-methoxypyridine-3-yl)methylene)pyrazine-2-carbohydrazide]
IC50 [1]: < 500 nM | IC50 [2]: < 500 nM

CN(C)c1cnc(F)c(/C=N/NC(=O)c2cncc(-c3ccc(OC(F)F)nc3)n2)c1 [Compound 105, (E)-6-(6-(difluoromethoxy)pyridine-3-yl)-N'-((5-(dimethylamino)-2-fluoropyridine-3-yl)methylene)pyrazine-2-carbohydrazide]
IC50 [1]: > 1000 nM | IC50 [2]: > 1000 nM

CCOc1ccc(-c2cncc(C(=O)N/N=C/c3cc(C(C)O)ccn3)n2)cn1 (centres unmarked) [Compound 31, (E)-6-(6-ethoxypyridine-3-yl)-N'-((4-(1-hydroxyethyl)pyridine-2-yl)methylene)pyrazine-2-carbohydrazide]
IC50 [1]: > 1000 nM | IC50 [2]: > 1000 nM

COc1cnc(C)c(/C=N/NC(=O)c2cncc(-c3ccc(OC(F)F)nc3)n2)c1 [Compound 103, (E)-6-(6-(difluoromethoxy)pyridine-3-yl)-N'-((5-methoxy-2-methylpyridine-3-yl)methylene)pyrazine-2-carbohydrazide]
IC50 [1]: < 500 nM | IC50 [2]: > 1000 nM

O=C(N/N=C/c1ccccc1F)c1cncc(-c2ccc(OC(F)(F)F)nc2)n1 [Compound 89, (E)-N'-(2-fluorobenzylidene)-6-(6-(trifluoromethoxy)pyridine-3-yl)pyrazine-2-carbohydrazide]
IC50 [1]: < 500 nM | IC50 [2]: > 1000 nM

CCOc1ccc(-c2nc(C(=O)N/N=C/c3cc(OC)cnc3F)cn(C)c2=O)cn1 [Compound 75, (E)-6-(6-ethoxypyridine-3-yl)-N'-((2-fluoro-5-methoxypyridine-3-yl)methylene)-4-methyl-5-oxo-4,5-dihydropyrazine-2-carbohydrazide]
IC50 [1]: > 1000 nM | IC50 [2]: > 1000 nM

COc1cnc(F)c(/C=N/NC(=O)c2cncc(-c3ccc(OC(F)(F)F)nc3)n2)c1 [Compound 95, (E)-N'-((2-fluoro-5-methoxypyridine-3-yl)methylene)-6-(6-(trifluoromethoxy)pyridine-3-yl)pyrazine-2-carbohydrazide]
IC50 [1]: < 500 nM | IC50 [2]: > 1000 nM

CCOc1ccc(-c2cnc(O)c(C(=O)N/N=C/c3cc(OC)ccc3F)n2)cn1 [Compound 68, (E)-6-(6-ethoxypyridine-3-yl)-N'-(2-fluoro-5-methoxybenzylidene)-3-hydroxypyrazine-2-carbohydrazide]
IC50 [1]: > 1000 nM | IC50 [2]: > 1000 nM

CCOc1ccc(-c2cncc(C(=O)N/N=C/c3cc(C(=O)O)ccc3F)n2)cn1 [Compound 10, (E)-3-(2-(6-(6-(6-ethoxypyridine-3-yl)pyrazine-2-carbonyl)hydrazinylidene)methyl)-4-fluorobenzoic acid]
IC50 [1]: > 1000 nM | IC50 [2]: > 1000 nM

COc1ccc(F)c(/C=N/NC(=O)c2cncc(-c3ccc(OC(F)(F)F)nc3)n2)n1 [Compound 97, (E)-N'-((3-fluoro-6-methoxypyridine-2-yl)methylene)-6-(6-(trifluoromethoxy)pyridine-3-yl)pyrazine-2-carbohydrazide]
IC50 [1]: > 1000 nM | IC50 [2]: > 1000 nM

COc1ccc(F)c(/C=N/NC(=O)c2cncc(-c3ccc(OCC(C)O)nc3)n2)c1 (centres unmarked) [Compound 138, (E)-N'-(2-fluoro-5-methoxybenzylidene)-6-(6-(2-hydroxypropoxy)pyridine-3-yl) pyrazine-2-carbohydrazide]
IC50 [1]: > 1000 nM | IC50 [2]: > 1000 nM

COc1cc(/C=N/NC(=O)c2cncc(-c3ccc(OC4CC4)nc3)n2)ccc1F [Compound 81, (E)-6-(6-cyclopropoxypyridine-3-yl)-N'-(4-fluoro-3-methoxybenzylidene)pyrazine-2-carbohydrazide]
IC50 [1]: < 500 nM | IC50 [2]: 500 to 1000 nM

CCOc1ccc(-c2nc(C(=O)N/N=C/c3cc(OC)ccc3F)cnc2O)cn1 [Compound 66, (E)-6-(6-ethoxypyridine-3-yl)-N'-(2-fluoro-5-methoxybenzylidene)-5-hydroxypyrazine-2-carbohydrazide]
IC50 [1]: > 1000 nM | IC50 [2]: > 1000 nM

CCOc1ccc(-c2cncc(C(=O)N/N=C/c3cc(OC)ncc3F)n2)cn1 [Compound 8, (E)-6-(6-ethoxypyridine-3-yl)-N'-((5-fluoro-2-methoxypyridine-4-yl)methylene)pyrazine-2-carbohydrazide]
IC50 [1]: 500 to 1000 nM | IC50 [2]: > 1000 nM

CCOc1ccc(-c2cncc(C(=O)N/N=C/c3cccn3C)n2)cn1 [Compound 50, (E)-6-(6-ethoxypyridine-3-yl)-N'-((1-methyl-1H-pyrrole-2-yl)methylene)pyrazine-2-carbohydrazide]
IC50 [1]: < 500 nM | IC50 [2]: > 1000 nM

CCOc1ccc(-c2cncc(C(=O)N/N=C/c3cc(OC)ccc3C)n2)cn1 [Compound 17, (E)-6-(6-ethoxypyridine-3-yl)-N'-(5-methoxy-2-methylbenzylidene)pyrazine-2-carbohydrazide]
IC50 [1]: < 500 nM | IC50 [2]: 500 to 1000 nM

COc1ccc(F)c(/C=N/NC(=O)c2cncc(-c3ccc(OCC(C)N)nc3)n2)c1 (centres unmarked) [Compound 136, (E)-6-(6-(2-aminopropoxy)pyridine-3-yl)-N'-(2-fluoro-5-methoxybenzylidene) pyrazine-2-carbohydrazide]
IC50 [1]: > 1000 nM | IC50 [2]: > 1000 nM

CCOc1ccc(-c2cncc(C(=O)N/N=C/c3cc(OC4CN(C)C4)ccc3F)n2)cn1 [Compound 39, (E)-6-(6-ethoxypyridine-3-yl)-N'-(2-fluoro-5-((1-methylazetidine-3-yl)oxy)benzylidene) pyrazine-2-carbohydrazide]
IC50 [1]: > 1000 nM | IC50 [2]: > 1000 nM

COc1ccc(F)c(/C=N/NC(=O)c2cnc(O)c(-c3ccc(OC(F)(F)F)nc3)n2)c1 [Compound 98, (E)-N'-(2-fluoro-5-methoxybenzylidene)-5-hydroxy-6-(6-(trifluoromethoxy)pyridine-3-yl)pyrazine-2-carbohydrazide]
IC50 [1]: > 1000 nM | IC50 [2]: > 1000 nM

CCOc1ccc(-c2cncc(C(=O)N/N=C/c3ccnn3C)n2)cn1 [Compound 51, (E)-6-(6-ethoxypyridine-3-yl)-N'-((1-methyl-1H-pyrazole-5-yl)methylene)pyrazine-2-carbohydrazide]
IC50 [1]: > 1000 nM | IC50 [2]: > 1000 nM

[2H]C([2H])([2H])C([2H])([2H])Oc1ccc(-c2cncc(C(=O)N/N=C/c3cc(OC)cnc3F)n2)cn1 [Compound 170, (E)-6-(6-(ethoxy-d5)pyridine-3-yl)-N'-((2-fluoro-5-methoxypyridine-3-yl)methylene) pyrazine-2-carbohydrazide]
IC50 [1]: < 500 nM | IC50 [2]: > 1000 nM

CCOc1ccc(-c2cncc(C(=O)N/N=C/c3cc(S(N)(=O)=O)ccc3F)n2)cn1 [Compound 14, (E)-3-((2-(6-(6-ethoxypyridine-3-yl)pyrazine-2-carbonyl)hydrazinylidene)methyl)-4-fluorobenzenesulfonamide]
IC50 [1]: > 1000 nM | IC50 [2]: > 1000 nM

COc1ccc(F)c(/C=N/NC(=O)c2cncc(-c3ccc(OCC4CN(C)C4)nc3)n2)c1 [Compound 146, (E)-N'-(2-fluoro-5-methoxybenzylidene)-6-(6-((1-methylazetidine-3-yl)methoxy)pyridine-3-yl)pyrazine-2-carbohydrazide]
IC50 [1]: > 1000 nM | IC50 [2]: > 1000 nM

CCOc1ccc(-c2cncc(C(=O)N/N=C/c3[nH]ccc3C)n2)cn1 [Compound 56, (E)-6-(6-ethoxypyridine-3-yl)-N'-((3-methyl-1H-pyrrole-2-yl)methylene)pyrazine-2-carbohydrazide]
IC50 [1]: 500 to 1000 nM | IC50 [2]: > 1000 nM

CCOc1ccc(-c2cncc(C(=O)N/N=C/c3ncoc3C)n2)cn1 [Compound 62, (E)-6-(6-ethoxypyridine-3-yl)-N'-((5-methyloxazole-4-yl)methylene)pyrazine-2-carbohydrazide]
IC50 [1]: 500 to 1000 nM | IC50 [2]: > 1000 nM

CCOc1ccc(-c2cnc(O)c(C(=O)N/N=C/c3cccn3C)n2)cn1 [Compound 70, (E)-6-(6-ethoxypyridine-3-yl)-3-hydroxy-N'-((1-methyl-1H-pyrrole-2-yl)methylene)pyrazine-2-carbohydrazide]
IC50 [1]: > 1000 nM | IC50 [2]: > 1000 nM

COc1cncc(/C=N/NC(=O)c2cncc(-c3ccc(OC(F)F)nc3)n2)c1 [Compound 107, (E)-6-(6-(difluoromethoxy)pyridine-3-yl)-N'-((5-methoxypyridine-3-yl)methylene)pyrazine-2-carbohydrazide]
IC50 [1]: > 1000 nM | IC50 [2]: > 1000 nM

[2H]C([2H])([2H])Oc1cnc(F)c(/C=N/NC(=O)c2cncc(-c3ccc(OC([2H])([2H])C([2H])([2H])[2H])nc3)n2)c1 [Compound 174, (E)-6-(6-(ethoxy-d5)pyridine-3-yl)-N'-((2-fluoro-5-(methoxy-d3)pyridine-3-yl)methylene)pyrazine-2-carbohydrazide]
IC50 [1]: < 500 nM | IC50 [2]: > 1000 nM

CCOc1ccc(-c2cncc(C(=O)N/N=C/c3cc(OC)cnc3C)n2)cn1 [Compound 27, (E)-6-(6-ethoxypyridine-3-yl)-N'-((5-methoxy-2-methylpyridine-3-yl)methylene)pyrazine-2-carbohydrazide]
IC50 [1]: < 500 nM | IC50 [2]: > 1000 nM

CCOc1ccc(-c2cncc(C(=O)N/N=C/c3cncn3C)n2)cn1 [Compound 58, (E)-6-(6-ethoxypyridine-3-yl)-N'-((1-methyl-1H-imidazole-5-yl)methylene)pyrazine-2-carbohydrazide]
IC50 [1]: > 1000 nM | IC50 [2]: > 1000 nM

COc1cnc(F)c(/C=N/NC(=O)c2cncc(-c3ccc(OC(F)F)nc3)n2)c1 [Compound 101, (E)-6-(6-(difluoromethoxy)pyridine-3-yl)-N'-((2-fluoro-5-methoxypyridine-3-yl)methylene)pyrazine-2-carbohydrazide]
IC50 [1]: < 500 nM | IC50 [2]: > 1000 nM
